Measured values taken from article PMC11177801 (Journal of medicinal chemistry, 2015).
Read-outs that look alike come from different tables or passages of the source.

Legend:
[1] = system: P. yoelii (Kenya strain, MR4 MRA-428); experiment: In vivo efficacy against murine malaria, modified 4-day test, oral gavage; settings: mice
[2] = system: P. falciparum chloroquine-resistant (CQR) 7G8 strain; experiment: microbe, parasite or virus in culture; format: cell-based; settings: Plasmodium falciparum, 7G8, read-out: antimalarial activity (IC50 in nM) 7G8
[3] = system: P. falciparum chloroquine-sensitive (CQS) D6 strain; experiment: Malaria SYBR Green I-based Fluorescence; format: cell-based, Plasmodium falciparum
[4] = system: P. falciparum chloroquine-resistant (CQR) Dd2 strain; experiment: microbe, parasite or virus in culture; format: cell-based; settings: Plasmodium falciparum, DD2, read-out: antimalarial activity (IC50 in nM) Dd2
[5] = system: multidrug-resistant P. yoelii; settings: 100 mg/kg/day, oral route; cited from earlier work
[6] = HepG2 cytotoxicity assay; format: cell-based; settings: human, cytotoxicity (IC50 in nM) HepG2, HepG2 cells
[7] = Plasmodium falciparum, D6, read-out: antimalarial activity (IC50 in nM) D6

| SMILES | IC50 [2] | IC50 [3, 7] | IC50 [4] | also measured |
| --- | --- | --- | --- | --- |
| CCN(CC)CCCC(C)Nc1ccnc2cc(Cl)ccc12 (stereo not shown) [CQ, chloroquine] | 130 nM | 13 nM | 115 nM | % suppression of parasitaemia on day 5 ([1]; 1 mg/kg × 4 days): 65%; % suppression of parasitaemia on day 5 ([1]; 4 mg/kg × 4 days): 94%; % suppression of parasitaemia on day 5 ([1]; 16 mg/kg × 4 days): 100%; % suppression of parasitaemia on day 5 ([1]; 64 mg/kg × 4 days): 100% |
| CCCCCCCCCCCC1=N/C(=C\c2[nH]c(-c3ccc[nH]3)cc2OC)C=C1 [Compound 1a, undecylprodiginine, reference compound] | 7 nM | 7.2 nM | 7.5 nM |  |
| CCC1CCCCCCCCC2=N/C(=C\c3[nH]c(-c4ccc[nH]4)cc3OC)C1=C2 (stereo not shown) [Compound 3b, metacycloprodiginine] |  |  |  | mice cured [5]: three of four |
| COC1=CC(c2cccn2C)=NC1=Cc1c(Cc2ccc(Cl)cc2)cc(Cc2ccc(Cl)cc2)n1C [Compound 87, 5’-((3,5-Bis(4-chlorobenzyl)-1-methyl-pyrrol-2-yl)methylene)-4’-methoxy-1-methyl-2,2’-bipyrrole] | > 2500 nM | > 2500 nM | > 2500 nM |  |
| O=C(CNC(=O)c1ccc[nH]1)NC12CC3CC(CC(C3)C1)C2 [Compound 190, N-(2-((Adamantan-1-yl)amino)-2-oxoethyl)-pyrrole-2-carboxamide] | > 2500 nM | > 2500 nM | > 2500 nM |  |
| c1c[nH]c(CNCCNC23CC4CC(CC(C4)C2)C3)c1 [Compound 191, N^1-((Pyrrol-2-yl)methyl)-N^2-(adamantan-1-yl)ethane-1,2-diamine] | > 2500 nM | > 2500 nM | > 2500 nM |  |
| O=C(C=Cc1ccc[nH]1)NCC(=O)NC12CC3CC(CC(C3)C1)C2 [Compound 194] |  |  |  | IC50 ([3]; read-out: antimalarial activity (IC50 in nM) D6): > 2500 nM |
| c1c[nH]c(CCCNCCNC23CC4CC(CC(C4)C2)C3)c1 [Compound 196, N^1-(3-(Pyrrol-2-yl)propyl)-N^2-(adamantan-1-yl)ethane-1,2-diamine] | > 2500 nM | > 2500 nM | > 2500 nM |  |
| OC(c1cc(C(F)(F)F)nc2c(C(F)(F)F)cccc12)C1CCCCN1 (stereo not shown) [MQ, mefloquine] |  |  |  | IC50 [6]: 21800 nM |
